From US7744910B2, “Compounds and compositions for delivering active agents” (Emisphere Technologies, Inc., priority 1998, dated 2010)
Several values for one entry are separate records, joined by “and”; a condition that tells them apart may be missing. Equal values may be shown once. Read-outs that look alike come from different tables or passages of the source.

Assays:
[1] = Intracolonic delivery of heparin in rats; heparin activity by activated partial thromboplastin time (APTT); format: in vivo, Sprague-Dawley rats; settings: IC
Protocol: Intracolonic dosing (IC) compositions containing delivery agent compound and heparin sodium USP in 25% aqueous propylene glycol were prepared by mixing. […] Typically, compound and heparin powders were mixed, 25% aqueous propylene glycol was added, NaOH solution was added, the contents sonicated, then diluted to a volume of 3.0. pH was checked and adjusted if necessary to pH=7-8.
The dosing solutions were administered to fasted rats at a volume dose of 1 ml/kg. Blood samples were collected by cardiac puncture following the administration of ketamine (44 mg/kg). Heparin activity was determined utilizing the activated partial thromboplastin time (APTT) according to the method of Henry, J. B., Clinical Diagnosis and Management by Laboratory Methods; Philadelphia, Pa.; W. B. Saunders (1979).

[2] = PTH delivery in rats, oral (PO) and intracolonic (IC); serum PTH by radioimmunoassay; format: in vivo, Sprague-Dawley rats
Protocol: Oral gavage (PO) or intracolonic (IC) dosing solutions of delivery agent compound and parathyroid hormone residues 1-34 (PTH) (residues 1-38 for the solution with compound 103) were prepared. […] The final dosing solutions were prepared by mixing the compound solution with a PTH stock solution (typically having a concentration of 5 mg PTH/ml) and diluting to the desired volume (usually 3.0 ml).
The rats were administered one of the dosing solutions at 1 ml/kg for PO or 0.5 ml/kg for IC. Blood samples were collected serially from the tail artery for serum determination of PTH concentration. Serum PTH concentrations were quantified by a PTH radioimmunoassay kit (Kit # RIK 6101 from Peninsula Laboratories, Inc., San Carlos, Calif.).

[3] = Oral delivery of rhGH in rats; serum rhGH by immunoassay; format: in vivo, Sprague-Dawley rats
Protocol: Oral gavage (PO) dosing solutions of delivery agent compound and rhGH in phosphate buffer were prepared. […] The final dosing solutions were prepared by mixing the compound solution with an rhGH stock solution (typically having a concentration of 15 mg rhGH/ml) and diluting to the desired volume (usually 3.0 ml).
The rats were administered 1 ml/kg of the dosing solution. Blood samples were collected serially from the tail artery for determination of serum rhGH concentrations. Serum rhGH concentrations were quantified by an rhGH immunoassay test kit (Kit # KIF4015 from Genzyme Corporation Inc., Cambridge, Mass.).

[4] = rat, in vivo, po, 150 mg/kg
Protocol: (§1) Oral dosing (PO) compositions of delivery agent compound and salmon calcitonin (sCT) in water were prepared by mixing. 450 mg of compound was added to 2.0 ml of water. Either the sodium salt of the compound was used or the free acid was converted to the sodium salt by stirring the resultant solution and adding one equivalent of sodium hydroxide (1.0 N) and diluting with water. 90 μg sCT was added to the solution. Water was then added to bring the total volume to 3.0 ml. […] (For compounds 118 and 123, the solutions were diluted to 6.0 ml and the volume dose was doubled.) The total sCT concentration was 30 μg/ml.
(§2) Male Sprague-Dawley rats weighing between 200-25.0 g were fasted for 24 hours and were administered ketamine (44 mg/kg) and chlorpromazine (1.5 mg/kg) 15 minutes prior to dosing. The rats were administered 1 ml/kg of dosing solution (2 ml/kg for compounds 118 and 123). Blood samples were collected serially from the tail artery. Serum sCT was determined by testing with an EIA kit (Kit # EIAS-6003 from Peninsula Laboratories, Inc., San Carlos, Calif.). The standard protocol from the kit was modified for compounds 104 and 105 as follows: incubated with 50 μl peptide antibody for 2 hours with shaking in the dark, washed the plate, added serum and biotinylated peptide and diluted with 4 ml buffer, and shook overnight in the dark.

[5] = Oral delivery of salmon calcitonin (sCT) in rats; serum sCT by EIA; settings: compound dose 50 mg/kg, sCT dose 25 μg/kg, modified EIA protocol
Protocol: as §1, §2

[6] = compound dose 50 mg/kg, heparin dose 25 mg/kg
[7] = compound dose 300 mg/kg, rhGH dose 6 mg/kg
[8] = PO, compound dose 100 mg/kg, PTH (1-34) dose 200 μg/kg
[9] = compound dose 200 mg/kg, rhGH dose 3 mg/kg
[10] = PO, compound dose 300 mg/kg, PTH (1-34) dose 100 μg/kg

Row | SMILES | Mean Peak APTT [1, 6] | also measured
1 | O=C(O)CCNC(=O)c1ccccc1O [Compound 103] | 21.9 ± 2.0 s | Mean Peak Serum PTH ([2]; IC, compound dose 100 mg/kg, PTH residues 1-38 dose 25 μg/kg): 38.53 ± 30.9 pg/mL
2 | Cc1cc(C)c(O)c(C(=O)Nc2ccc(CCCC(=O)O)cc2)c1 [Compound 14] | 54 ± 21 s | –
3 | Nc1ccc(Cl)cc1C(=O)NCCCCCCCC(=O)O [Compound 40] | – | Mean Peak Serum [rhGH] [3, 7]: 42 ± 80 ng/mL
4 | O=C(O)CCCNC(=O)c1ccccc1 [Compound 93] | – | Mean Peak APTT ([1]; compound dose 25 mg/kg, heparin dose 50 mg/kg): 22 ± 0 s; Mean Peak Serum PTH [2, 8]: 343 ± 155 pg/mL
5 | O=C(O)CCCNC(=O)c1ccccc1F [Compound 92] | 22 ± 2 s | Mean Peak Serum PTH [2, 8]: 303 ± 427 pg/mL
6 | Cc1ccccc1C(=O)NCCCCCCCCCC(=O)O [Compound 99] | 34 ± 7 s | –
7 | O=C(O)CCCCCCCCCCNC(=O)c1ccccc1 [Compound 87] | 21 ± 1 s and 23 ± 3 s | –
8 | O=C(O)CCCCCCCNC(=O)c1cc(F)ccc1O [Compound 54] | 124 ± 137 s | Mean Peak Serum [rhGH] [3, 9]: 48 ± 33 ng/mL
9 | O=C(O)CCCCCCCC(=O)Nc1cc(Cl)ccc1O [Compound 122] | – | Serum sCT (pg/ml) ± SD (SE) [4]: 187 ± 79 (36) pg/ml
10 | COc1ccccc1C(=O)NCCCCCCCCCCCC(=O)O [Compound 96] | 72 ± 63 s | –
11 | O=C(O)CCCC(=O)Nc1cc(Cl)ccc1O [Compound 119] | – | Serum sCT (pg/ml) ± SD (SE) [4]: 95 ± 119 (53) pg/ml
12 | O=C(O)CCCCCCCNC(=O)c1cc(Cl)cc(F)c1O [Compound 45] | – | Mean Peak Serum [rhGH] [3, 9]: 49 ± 56 ng/mL
13 | O=C(O)CCCCCNC(=O)c1ccccc1F [Compound 86] | 24 ± 1 s and 31 ± 11 s | Mean Peak Serum PTH [2, 8]: 0 pg/mL
14 | O=C(O)CCCCCCCCC(=O)Nc1cc(Cl)ccc1O [Compound 123] | – | Serum sCT (pg/ml) ± SD (SE) [4]: 0 pg/mL
15 | Cc1ccccc1C(=O)NCCCCCC(=O)O [Compound 101] | 26 ± 5 s | –
16 | O=C(O)CNC(=O)c1ccccc1F [Compound 113] | 20.4 s | –
17 | COc1ccccc1C(=O)NCC(=O)O [Compound 112] | 28.7 ± 11.5 s | –
18 | O=C(O)CCCCCCCNC(=O)c1c(O)cccc1Cl [Compound 51] | 111 ± 49 s | –
19 | COc1ccc(C(=O)NCCCCCCCCCC(=O)O)c(O)c1 [Compound 108] | 72.9 ± 28.9 s | –
20 | O=C(O)CCCCCCCCCCCNC(=O)c1ccccc1F [Compound 97] | 33 ± 10 s | –
21 | O=C(O)CCCCCCCNC(=O)Cc1ccc(O)cc1 [Compound 46] | 52 ± 34 s | –
22 | O=C(O)CCCCCC(=O)Nc1cc(Cl)ccc1O [Compound 120] | 42 ± 34 s | –
23 | COc1ccc(C(=O)Nc2ccc(CCCC(=O)O)cc2)c(O)c1 [Compound 104] | – | Serum sCT (pg/ml) ± SD (SE) [5]: 287 ± 104 pg/mL; Mean Peak Serum PTH [2, 8]: 286.35 ± 191.58 pg/mL
24 | Cc1cc(F)cc(C(=O)NCCCCCCCC(=O)O)c1O [Compound 56] | 91 ± 75 s | –

Row | SMILES | Mean Peak APTT [1, 6] | also measured
25 | COc1ccc(C(=O)NCCCCCC(=O)O)c(O)c1 [Compound 107] | 26.2 ± 6.1 s | –
26 | COc1ccc(C(=O)NCC(=O)O)c(O)c1 [Compound 102] | 24.8 ± 0.9 s and 24.7 ± 6.5 s | –
27 | O=C(O)CCCCCCCCCNC(=O)c1ccccc1F [Compound 85] | 27 ± 4 s | –
28 | CNc1ccccc1C(=O)Nc1ccc(CCC(=O)O)cc1 [Compound 7] | 59 ± 41 s | –
29 | O=C(O)CCCNC(=O)c1cc(Cl)ccc1O [Compound 105] | – | Serum sCT (pg/ml) ± SD (SE) [5]: 583 ± 140 pg/mL
30 | Cc1cc(Cl)cc(C(=O)NCCCCCCCC(=O)O)c1O [Compound 55] | 125 ± 195 s | –
31 | CNc1ccccc1C(=O)Nc1ccc(CCCC(=O)O)cc1 [Compound 10] | – | Mean Peak Serum [rhGH] [3, 9]: 43 ± 65 ng/mL; Mean Peak Serum PTH [2, 10]: 420 ± 335 pg/mL
32 | COc1ccccc1C(=O)NCCCCCCCCCC(=O)O [Compound 94] | 50 ± 28 s | Mean Peak Serum PTH [2, 8]: 17 ± 38 pg/mL
33 | O=C(O)CCCc1ccc(Nc2cc(=O)oc3ccccc23)cc1 [Compound 72] | 50 ± 18 s | –
34 | COc1ccc(C(=O)NCCCCCCCCCCCC(=O)O)c(O)c1 [Compound 109] | 24.2 ± 1.7 s | –
35 | O=C(O)CCCCCNC(=O)c1ccccc1 [Compound 89] | 33 ± 7 s | Mean Peak Serum PTH [2, 8]: 27 ± 61 pg/mL
36 | O=C(O)CCc1ccc(F)c(NC(=O)c2ccccc2O)c1 [Compound 60] | 71 ± 43 s | –
37 | Cc1ccccc1C(=O)NCC(=O)O [Compound 111] | 24.4 ± 3.3 s | –
38 | Cc1ccccc1C(=O)NCCCCCCCCCCCC(=O)O [Compound 95] | 30 ± 2 s | –
39 | O=C(O)CCCCCCCNC(=O)c1cc(Cl)cc(Br)c1O [Compound 48] | 75 ± 18 s | –
40 | Cc1ccccc1C(=O)NCCCC(=O)O [Compound 91] | 24 ± 4 s | Mean Peak Serum PTH [2, 8]: 5 ± 12 pg/mL
41 | O=C(O)CCCCCCCCCNC(=O)c1ccccc1 [Compound 100] | 31 ± 8 s | –
42 | COc1ccccc1C(=O)NCCCC(=O)O [Compound 90] | 26 ± 7 s | Mean Peak Serum PTH [2, 8]: 14 ± 21 pg/mL
43 | O=C(O)CCCCCCCCCCCNC(=O)c1ccccc1 [Compound 98] | 25 ± 5 s | –
44 | O=C(O)CCCCCCCCCCNC(=O)c1ccccc1F [Compound 88] | 59 ± 47 s | –
45 | O=C(O)CNC(=O)c1ccccc1 [Compound 110] | 26.5 ± 4.7 s and 23.4 ± 0.7 s | –
46 | COc1ccc(C(=O)NCCCC(=O)O)c(O)c1 [Compound 106] | 48 ± 16.9 s and 27.7 ± 12.6 s | –
47 | Nc1ccc(F)cc1C(=O)Nc1ccc(CCCC(=O)O)cc1 [Compound 3] | – | Mean Peak Serum [rhGH] [3, 7]: 72 ± 45 ng/mL; Mean Peak Serum PTH [2, 10]: 222 ± 155 pg/mL
48 | O=C(O)CCCCCCCNC(=O)c1cc(F)cc(F)c1O [Compound 41] | 41 ± 26 s | –
